Measured values from patent publication US20230416248A1, “COMPOUNDS AND USES THEREOF” (Foghorn Therapeutics Inc., priority 2020, published 2023).

Target: T1, BRM (Homo sapiens, UniProt P51531)
T1 construct: made in house; host or cells: High Five insect cells
Assay: ATPase catalytic activity of BRM, ADP-Glo in vitro biochemical assay
Settings: for IC50: 30 nM BRM, 400 μM ATP
Description: The ATPase catalytic activity of BRM or BRG-1 was measured by an in vitro biochemical assay using ADP-Glo™ (Promega, V9102). The ADP-Glo™ kinase assay is performed in two steps once the reaction is complete. The first step is to deplete any unconsumed ATP in the reaction. The second step is to convert the reaction product ADP to ATP, which will be utilized by the luciferase to generate luminesce and be detected by a luminescence reader, such as Envision.
The assay reaction mixture ([…]) contains 30 nM of BRM or BRG-1, 20 nM salmon sperm DNA (from Invitrogen, UfraPure™ Salmon Sperm DNA Solution, cat #15632011), and 400 μM of ATP in the ATPase assay buffer, which comprises of 20 mM Tris, pH 8, 20 mM MgCl2, 50 mM NaCl, 0.1% Tween-20, and 1 mM fresh DTT (Piercer™ DTT (Dithiothreitol), cat #20290). The reaction is initiated by the addition of the 2.5 μL ATPase solution to 2.5 μL ATP/DNA solution on low volume white Proxiplate-384 plus plate (PerkinElmer, cat #6008280) and incubates at room temperature for 1 hour. Then, following addition of 5 μL of ADP-Glo™ Reagent provided in the kit, the reaction incubates at room temperature for 40 minutes. Then, 10 μL of Kinase Detection Reagent provided in the kit is added to convert ADP to ATP, and the reaction incubates at room temperature for 60 minutes. Finally, luminescence measurement is collected with a plate-reading luminometer, such as Envision.

[1] = ATPase catalytic activity, ADP-Glo

T1 sequence (P51531 whole entry): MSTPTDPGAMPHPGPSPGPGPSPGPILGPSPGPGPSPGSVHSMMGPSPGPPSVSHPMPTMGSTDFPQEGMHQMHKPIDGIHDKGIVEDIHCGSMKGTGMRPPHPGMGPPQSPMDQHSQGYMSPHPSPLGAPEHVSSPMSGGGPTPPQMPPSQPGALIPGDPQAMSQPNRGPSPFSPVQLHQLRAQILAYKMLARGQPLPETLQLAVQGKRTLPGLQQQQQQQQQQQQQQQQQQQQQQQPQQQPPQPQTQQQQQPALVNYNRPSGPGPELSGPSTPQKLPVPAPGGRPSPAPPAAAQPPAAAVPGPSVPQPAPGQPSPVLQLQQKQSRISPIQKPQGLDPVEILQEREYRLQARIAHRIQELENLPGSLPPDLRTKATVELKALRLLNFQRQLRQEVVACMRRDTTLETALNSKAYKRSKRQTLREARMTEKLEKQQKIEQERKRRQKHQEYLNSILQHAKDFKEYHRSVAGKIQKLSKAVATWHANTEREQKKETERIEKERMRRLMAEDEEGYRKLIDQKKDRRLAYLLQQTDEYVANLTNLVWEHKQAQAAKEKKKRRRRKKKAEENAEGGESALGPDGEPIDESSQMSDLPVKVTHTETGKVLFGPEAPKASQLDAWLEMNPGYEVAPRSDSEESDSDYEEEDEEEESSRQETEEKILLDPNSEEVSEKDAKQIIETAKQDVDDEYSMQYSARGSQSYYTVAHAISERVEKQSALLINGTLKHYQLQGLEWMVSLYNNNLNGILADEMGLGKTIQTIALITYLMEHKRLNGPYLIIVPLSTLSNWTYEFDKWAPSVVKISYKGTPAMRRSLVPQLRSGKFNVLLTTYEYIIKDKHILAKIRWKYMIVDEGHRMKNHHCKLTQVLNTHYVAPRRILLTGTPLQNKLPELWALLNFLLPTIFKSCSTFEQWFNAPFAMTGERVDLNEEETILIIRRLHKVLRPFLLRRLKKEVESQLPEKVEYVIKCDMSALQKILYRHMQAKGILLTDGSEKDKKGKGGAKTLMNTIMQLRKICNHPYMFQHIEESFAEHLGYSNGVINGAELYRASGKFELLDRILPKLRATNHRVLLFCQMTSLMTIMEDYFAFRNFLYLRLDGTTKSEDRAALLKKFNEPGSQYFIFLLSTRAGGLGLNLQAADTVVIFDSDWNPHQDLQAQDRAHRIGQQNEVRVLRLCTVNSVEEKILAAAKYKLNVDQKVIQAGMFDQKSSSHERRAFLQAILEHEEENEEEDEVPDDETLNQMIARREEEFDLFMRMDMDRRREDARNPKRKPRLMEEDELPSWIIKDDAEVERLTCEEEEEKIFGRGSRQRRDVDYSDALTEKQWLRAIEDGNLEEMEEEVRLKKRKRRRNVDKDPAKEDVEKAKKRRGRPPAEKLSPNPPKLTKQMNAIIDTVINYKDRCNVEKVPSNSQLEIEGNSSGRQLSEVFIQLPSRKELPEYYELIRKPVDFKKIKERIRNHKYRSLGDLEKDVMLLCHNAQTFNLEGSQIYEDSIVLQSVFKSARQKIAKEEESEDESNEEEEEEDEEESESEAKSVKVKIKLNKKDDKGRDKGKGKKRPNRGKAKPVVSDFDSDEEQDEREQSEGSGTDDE

SMILES	IC50 [1] [nM]	Ratio* (ratio of BRG1 IC50 to BRM IC50)	IC50 (ADP-Glo ATPase assay) [nM]	Ratio* (ratio BRG1 IC50 / BRM IC50)
C[C@@H]1CN(c2cccc(-c3ccc4cnc(CNC(=O)c5cccc(S(=O)(=O)C6CC6)c5)cc4n3)n2)C[C@H](C)O1 [Compound 371]	196	25.45		
C[C@@H]1CN(c2cccc(-c3ccc4cnc(CNC(=O)c5ccc6c(c5)S(=O)(=O)[C@@H](C)CC6)cc4n3)n2)C[C@H](C)O1 [Compound 363]	206	24.25		
Cc1cc(C(=O)NCc2cc3nc(-c4cccc(N5C[C@@H](C)O[C@@H](C)C5)n4)ccc3cn2)cc2c1COC[C@@H](C)S2(=O)=O [Compound 462]	1720	2.92		
CO[C@H](C)c1ccc2c(n1)N(c1ccc3cnc(CNC(=O)c4ccc5c(c4)S(=O)(=O)CCOC5)cc3n1)CCC2 [Compound 562]	425	11.77		
CC1CN(c2cccc(-c3ccc4cnc(CNC(=O)c5cnc6c(c5)S(=O)(=O)CCC5CC65)cc4n3)n2)CC(C)O1 (centres unmarked) [Compound 579]		4.40		
CC[C@@H]1COCc2ccc(C(=O)NCc3cc4nc(-c5cccc(N6C[C@@H](C)O[C@@H](C)C6)n5)ccc4cn3)cc2S1(=O)=O [Compound 359]		1.00		
O=C(NCc1cc2nc(N3CCc4nccnc4C3)ccc2cn1)c1ccc2c(c1)S(=O)(=O)CCOC2 [Compound 546]	1820	2.75		
COc1ccc(C(C)(F)F)cc1-c1ccc2cnc(CNC(=O)c3ccc4c(c3)S(=O)(=O)CCOC4)cc2n1 [Compound 368]		1.00		
C[C@@H]1CN(c2cccc(-c3ccc4cnc(CNC(=O)c5ccc6c(c5)S(=O)(=O)C5(CC6)CC5)cc4n3)n2)C[C@H](C)O1 [Compound 531]		28.30		
CC[C@H]1COCc2ccc(C(=O)NCc3cc4nc(-c5cccc(N6C[C@@H](C)O[C@@H](C)C6)n5)ccc4cn3)cc2S1(=O)=O [Compound 360]	974	5.14		
C[C@@H]1CN(c2cccc(-c3ccc4cnc(CNC(=O)c5ccc6c(c5)S(=O)(=O)[C@H](C)CO[C@H]6C)cc4n3)n2)C[C@H](C)O1 [Compound 518]	4560	1.10		
CC1Cc2cccnc2N(c2ccc3cnc(CNC(=O)c4ccc5c(c4)S(=O)(=O)CCOC5)cc3n2)C1 (centres unmarked) [Compound 556]	1700	2.94		
Cc1cc(C(=O)NCc2cc3nc(-c4cccc(N5C[C@@H](C)O[C@@H](C)C5)n4)ccc3cn2)cc2c1OCC[C@@H](C)S2(=O)=O [Compound 461]	1590	3.15		
C[C@@H]1CN(c2cccc(-c3ccc4cnc(CNC(=O)c5ccc6c(c5)S(=O)(=O)CCO[C@H]6C5CC5)cc4n3)n2)C[C@H](C)O1 [Compound 459]	192	25.98		
C[C@@H]1CN(c2cccc(-c3ccc4cnc(CNC(=O)c5cc(Cl)c6c(c5)S(=O)(=O)CCO[C@H]6C)cc4n3)n2)C[C@H](C)O1 [Compound 547]	293	17.08		
O=C(NCc1cc2nc(N3C(=O)Cc4ccccc43)ccc2cn1)c1ccc2c(c1)S(=O)(=O)CCOC2 [Compound 356]	3310	1.51		

SMILES	IC50 [1] [nM]	Ratio* (ratio of BRG1 IC50 to BRM IC50)	IC50 (ADP-Glo ATPase assay) [nM]	Ratio* (ratio BRG1 IC50 / BRM IC50)
COc1c(-c2ccc3cnc(CNC(=O)c4ccc5c(c4)S(=O)(=O)CCOC5)cc3n2)cccc1C(F)F [Compound 343]	1350	3.71		
C[C@@H]1CCS(=O)(=O)c2cc(C(=O)NCc3cc4nc(-c5cccc(N6C[C@@H](C)O[C@@H](C)C6)n5)ccc4cn3)cc(Cl)c2O1 [Compound 505]	539	9.28		
C[C@@H]1CN(c2cccc(-c3ccc4cnc(CNC(=O)c5ccc6c(c5)S(=O)(=O)[C@H](C)CN6C)cc4n3)n2)C[C@H](C)O1 [Compound 560]	498	10.04		
C[C@@H]1CN(c2cccc(-c3ccc4cnc(CNC(=O)c5ccc6c(c5)S(=O)(=O)CC[C@H](C(F)F)O6)cc4n3)n2)C[C@H](C)O1 [Compound 582]	1240	4.05		
CC[C@H]1CCS(=O)(=O)c2cc(C(=O)NCc3cc4nc(-c5cccc(N6C[C@@H](C)O[C@@H](C)C6)n5)ccc4cn3)ccc2O1 [Compound 584]	793	6.31		
O=C(NCc1cc2nc(N3CCCc4ccc(C(F)F)nc43)ccc2cn1)c1ccc2c(c1)S(=O)(=O)CCOC2 [Compound 563]		16.52		
CCOc1cc(C)cc(-c2ccc3cnc(CNC(=O)c4ccc5c(c4)S(=O)(=O)[C@@H](C)COC5)cc3n2)n1 [Compound 417]	253	19.79		
CC1CN(c2cccc(-c3ccc4cnc(CNC(=O)c5ccc6c(c5)S(=O)(=O)C(C)COC6C)cc4n3)n2)CC(C)O1 (centres unmarked) [Compound 535]	637	7.84		
C[C@@H]1CN(c2cccc(-c3ccc4cnc(CNC(=O)c5ccc6c(c5)S(=O)(=O)[C@@H](C)CO[C@@H]6C)cc4n3)n2)C[C@H](C)O1 [Compound 517]	429	11.66		
O=C(NCc1cc2nc(-n3cccc(N4CCOCC4)c3=O)ccc2cn1)c1ccc2c(c1)S(=O)(=O)CCOC2 [Compound 401]	1320	3.79		
O=C(NCc1cc2nc(N3CCCc4ccc(C(F)F)nc43)ccc2cn1)c1ccc2c(c1)S(=O)(=O)CCOC2 [Compound 571]		6.87		
CN1CC[C@@H](Oc2cccc(-c3ccc4cnc(CNC(=O)c5ccc6c(c5)S(=O)(=O)CCOC6)cc4n3)n2)C1 [Compound 328]	843	5.93		
C[C@@H]1CN(c2cccc(-c3ccc4cnc(CNC(=O)c5cc(Cl)c6c(c5)S(=O)(=O)[C@H](C)CCO6)cc4n3)n2)C[C@H](C)O1 [Compound 486]	1160	4.29		
C[C@@H]1CN(c2cccc(-c3ccc4cnc(CNC(=O)c5cc(Cl)c6c(c5)S(=O)(=O)[C@H](C)COC6)cc4n3)n2)C[C@H](C)O1 [Compound 432]	1500	3.34		
Cc1cc(C(=O)NCc2cc3nc(-c4cccc(N5C[C@@H](C)O[C@@H](C)C5)n4)ccc3cn2)cc2c1O[C@H](C)CCS2(=O)=O [Compound 541]	131	38.11		

Further lines, results first:

IC50 [1] [nM]	Ratio* (ratio of BRG1 IC50 to BRM IC50)	IC50 (ADP-Glo ATPase assay) [nM]	Ratio* (ratio BRG1 IC50 / BRM IC50)	SMILES
884	5.66			O=C(NCc1cc2nc(-c3cccc4c3CN(CC(F)F)CC4)ccc2cn1)c1ccc2c(c1)S(=O)(=O)CCOC2 [Compound 675]
4000	1.25			O=C(NCc1cc2nc(-c3cccc4c3CN(C3COC3)CC4)ccc2cn1)c1ccc2c(c1)S(=O)(=O)CCOC2 [Compound 671]
		2320	2.15	COCCN(c1ccc(C2CC2)cn1)c1ccc2cnc(CNC(=O)c3ccc4c(c3)S(=O)(=O)CCOC4)cc2n1 [Compound 833]
484	10.33			C[C@@H]1CN(c2cccc(-c3ccc4cnc(CNC(=O)c5ccc6c(c5)S(=O)(=O)[C@H](C)CO6)cc4n3)n2)C[C@H](C)O1 [Compound 684]
		1660	3.02	COCCN(c1cc(C2CC2)ccn1)c1ccc2cnc(CNC(=O)c3ccc4c(c3)S(=O)(=O)CCOC4)cc2n1 [Compound 829]
		4000	1.25	COCCN(c1cccc(C2CC2)n1)c1ccc2cnc(CNC(=O)c3ccc4c(c3)S(=O)(=O)CCOC4)cc2n1 [Compound 840]
		188	26.60	CS(=O)(=O)c1cc(C(=O)NCc2cc3nc(N4CCCc5ccc(C6CC6)nc54)ccc3cn2)cnc1C(F)F [Compound 721]
673	7.43			CO[C@@H](c1ccc2c(n1)N(c1ccc3cnc(CNC(=O)c4ccc5c(c4)S(=O)(=O)CCOC5)cc3n1)CCC2)C1CC1 [Compound 663]
715	6.99			O=C(NCc1cc2nc(-c3cccc4c3CN(C3CC3)CC4)ccc2cn1)c1ccc2c(c1)S(=O)(=O)CCOC2 [Compound 685]
		606	8.25	O=C(NCc1cc2nc(-c3ccc(OC(F)F)cn3)ccc2cn1)c1ccc2c(c1)S(=O)(=O)CCOC2 [Compound 849]
1190	4.19			C[C@@H]1CN(c2cccc(-c3ccc4cnc(CNC(=O)c5cc(C6CCC6)c6c(c5)S(=O)(=O)CCOC6)cc4n3)n2)C[C@H](C)O1 [Compound 631]
			1.00	O=C(NCc1cc2cc(N3CCOc4cc(C5CC5)cnc43)ncc2cn1)c1ccc2c(c1)S(=O)(=O)CCOC2 [Compound 811]
3780	1.32			COCCN1CCc2cccc(-c3ccc4cnc(CNC(=O)c5ccc6c(c5)S(=O)(=O)CCOC6)cc4n3)c2C1 [Compound 674]
			1.00	O=C(NCc1cc2nc(C34CC3CCc3cccnc34)ccc2cn1)c1ccc2c(c1)S(=O)(=O)CCOC2 (centres unmarked) [Compound 762]
		3200	1.56	Cn1cccc(-c2ccc3cnc(CNC(=O)c4ccc5c(c4)S(=O)(=O)CCOC5)cc3n2)c1=O [Compound 826]
681	7.34			C[C@@H]1CN(c2cccc(-c3ccc4cnc(CNC(=O)c5cnc6c(c5)S(=O)(=O)[C@H](C)CC6)cc4n3)n2)C[C@H](C)O1 [Compound 596]
